Patent publication US8158168B2, “Anti-gastritis and anti-ulcer agent containing Momordicae semen extract and momordica saponin I isolated from the same” (SK Chemicals Co., Ltd., priority 2005, dated 2012)

Experiments:
[1] = tested on: damage of gastric mucosa induced by alcohol; experiment: Protective effect against stomach damage induced by alcohol (Momordicae semen extract, Example 1); type: in vivo, Sprague-Dawley rats; conditions: rat, drugs 100 mg/kg 1 hour before 1.5 mL 100% ethanol oral, stomach observed 6 hours later
Protocol: A rat model test was performed using 100% ethanol as stomach damage inducing factor to evaluate the protective effect of the Momordicae semen extract for gastric mucosa. The Momordicae semen extract of Preparative Example 1 was dissolved in 0.5% aqueous carboxymethyl cellulose solution to 10 mg/mL and was used as a test drug. Stillen (artemisia extract, Dong-A Pharmaceutical) and Mucosta (rebamipide, Korea Otsuka Pharmaceuticals) dissolved in 0.5% aqueous carboxymethyl cellulose solution to 10 mg/mL were used as control drugs.
(§1) Seven-week-old specific pathogen free (SPF) male Sprague-Dawley rats were purchased from Charles River. After 1 week of adaptation, healthy rats with a weight of 220-225 g were selected for the test. Five rats per each group were fasted for 18 hours with drinking water freely available. The Momordicae semen extract and the control drugs Stillen and Mucosta were administered at a dosage of 100 mg/kg. After 1 hour, 1.5 mL of 100% ethanol was orally administered. 6 hours later, the rats were anesthetized with ether and the stomach was taken out in order to evaluate the drug's effect of preventing the stomach damage. […] The damage of the stomach was categorized into flare, congestion, hemorrhage, inflammation and edema. The severity of the damage was evaluated with points ranging from 0 to 3.

[2] = tested on: damage of gastric mucosa induced by alcohol; experiment: Protective effect against stomach damage induced by alcohol (momordica saponin I, Example 2); type: in vivo, Sprague-Dawley rats; conditions: rat, momordica saponin I 20 mg/kg, Mucosta 100 mg/kg, 30 minutes before 1.5 mL 100% ethanol oral, observed 3 hours later; for gastric mucosa damage index ± standard deviation: Bleeding / gastric mucosa damage index ± standard deviation: Edema / gastric mucosa damage index ± standard deviation: Erosion / gastric mucosa damage index ± standard deviation: Flare / gastric mucosa damage index ± standard deviation: Hyperemia: points 0 to 3
Protocol: A rat model test was performed using 100% ethanol as stomach damage inducing factor to evaluate the protective effect of momordica saponin I for gastric mucosa. The momordica saponin I isolated in Preparative Example 5 was dissolved in 0.5% aqueous carboxymethyl cellulose solution to 2 mg/mL and was used as a test drug. Mucosta (rebamipide, Korea Otsuka Pharmaceuticals) dissolved in 0.5% aqueous carboxymethyl cellulose solution to 10 mg/mL was used as control drug.
as §1, with “Momordica saponin I were administered at a dosage of 20 mg/kg” for “The Momordicae semen extract”, “drug” for “drugs Stillen and”, “30 minutes,” for “1 hour,”, “3” for “6”, “classified” for “categorized”, “3 (the higher the point, the severer the damage.).” for “3.”

[3] = tested on: stomach damage induced by diclofenac; experiment: Healing effect on stomach damage induced by diclofenac (Example 3); type: in vivo, Sprague-Dawley rats; conditions: rat, diclofenac 40 mg/kg oral, drugs 100 mg/kg 6 hours after, observed 18 hours later
Protocol: A rat model test was performed using diclofenac, a representative non-steroidal anti-inflammatory drug (NSAID), as stomach damage inducing factor to evaluate the effect of the Momordicae semen extract of Example 1 for treating gastritis. The Momordicae semen extract was dissolved in 0.5% aqueous carboxymethyl cellulose solution to 10 mg/mL and was used as a test drug. Stillen (artemisia extract, Dong-A Pharmaceutical) and Mucosta (rebamipide, Korea Otsuka Pharmaceuticals) dissolved in 0.5% aqueous carboxymethyl cellulose solution to 10 mg/mL were used as control drugs.
as §1, with “available and diclofenac was orally administered at a dosage of 40 mg/kg. After 6 hours of stomach damage inducement, the” for “available. The”, “18” for “After 1 hour, 1.5 mL of 100% ethanol was orally administered. 6”, “treating gastritis.” for “preventing the stomach damage.”, “classified” for “categorized”

[4] = tested on: stomach damage induced by diclofenac; experiment: Protective effect against stomach damage induced by diclofenac, simultaneous abdominal administration (Example 4); type: in vivo, Sprague-Dawley rats; conditions: rat, diclofenac 40 mg/kg oral and at the same time drugs 100 mg/kg abdominally, observed 6 hours later
Protocol: Differently from Example 3, diclofenac and the test drug were administered simultaneously and the damage of gastric mucosa was observed 6 hours later. In order to prevent the direct interaction between diclofenac and the test drug, the test drug was administered abdominally. Similar to that in Example 3, diclofenac and the test drug were dissolved in 0.5% aqueous carboxymethyl cellulose solution to 10 mg/mL.
(§2) Seven-week-old specific pathogen free (SPF) male Sprague-Dawley rats were purchased from Charles River. After 1 week of adaptation, healthy rats with a weight of 220-225 g were selected for the test. Five rats per each group were fasted for 18 hours with drinking water freely available and diclofenac was orally administered at a dosage of 40 mg/kg and, at the same time, the test drug, or the Momordicae semen extract, and the control drugs Stillen and Mucosta were abdominally administered at a dosage of 100 mg/kg. 6 hours later, the rats were anesthetized with ether and the stomach was taken out in order to evaluate the drug's effect of treating gastritis. […] The damage of the stomach was classified into flare, congestion, hemorrhage, inflammation and edema. The severity of the damage was evaluated with points ranging from 0 to 3.

[5] = tested on: stomach damage induced by diclofenac; experiment: Protective effect of momordica saponin I against stomach damage induced by diclofenac (Example 5); type: in vivo, Sprague-Dawley rats; conditions: rat, diclofenac 40 mg/kg oral and at the same time momordica saponin I 20 mg/kg or Mucosta 100 mg/kg oral, observed 4 hours later; for gastric mucosa damage index ± standard deviation: Bleeding / gastric mucosa damage index ± standard deviation: Edema / gastric mucosa damage index ± standard deviation: Flare / gastric mucosa damage index ± standard deviation: Hyperemia: points 0 to 3
Protocol: Diclofenac and the test drug were administered simultaneously and the damage of gastric mucosa was observed 4 hours later. Diclofenac was dissolved in 0.5% aqueous carboxymethyl cellulose solution to […] and the test drug was prepared as in Example 2.
as §2, with “momordica saponin I, was orally administered at a dosage of 20 mg/kg” for “the Momordicae semen extract,”, “drug” for “drugs Stillen and”, “was orally” for “were abdominally”, “4” for “6”, “3 (The higher the point, the severer the damage).” for “3.”

[6] = tested on: stomach damage induced by diclofenac; experiment: as above; type: in vivo, Sprague-Dawley rats; conditions: rat, diclofenac 40 mg/kg oral and at the same time momordica saponin I 20 mg/kg or Mucosta 100 mg/kg oral; observed 4 hours later; points 0 to 3
[7] = tested on: secretion of gastric acid; experiment: Gastric acid secretion inhibition test in rats (Example 6); type: in vivo, Sprague-Dawley rats; conditions: 1 hour later, gastric juice diluted 10 times with distilled water
Protocol: Momordica saponin I was orally administered to Sprague-Dawley rats and the acidity in the stomach was measured in order to evaluate the effect of momordica saponin I on the secretion of gastric acid. The momordica saponin I isolated in Preparative Example 4 was dissolved in 0.5% aqueous carboxymethyl cellulose solution to concentrations of 0.5, 1.5 and 4.5 mg/mL. 7-week-old specific pathogen free (SPF) male Sprague-Dawley rats were purchased from Charles River. After 1 week of adaptation, healthy rats with a weight of 220-225 g were selected for the test. Two rats per each group were fasted for 18 hours with drinking water freely available and momordica saponin I were administered at dosages of 5, 15 and 45 mg/kg. 1 hour later, the rats were anesthetized with ether. 0.5 mL of the gastric juice taken from the stomach was diluted 10 times with distilled water to obtain a 5 mL sample. The pH of the diluted gastric juice was measured with a pH meter.

Sprague-Dawley rats = experiment: Acute toxicity test for oral administration of momordica saponin I in rats (Example 8); type: in vivo; conditions: rat
Protocol: Acute toxicity test was performed as follows using 6-week-old specific pathogen free (SPF) Sprague-Dawley rats
To two rats per each group, the momordica saponin I isolated in Preparative Example 5 was orally administered once at a dosage of 400 mg/kg. Survival, clinical manifestations and body weight change were observed and hematological and serum biochemical analysis was performed. Autopsy was performed to observe abnormalities in abdominal and thoracic organs.

Row | SMILES | gastric mucosa damage index ± standard deviation: Total [2] | gastric mucosa damage index ± standard deviation: Bleeding [2] | gastric mucosa damage index ± standard deviation: Edema [2] | gastric mucosa damage index ± standard deviation: Erosion [2] | gastric mucosa damage index ± standard deviation: Flare [2] | gastric mucosa damage index ± standard deviation: Hyperemia [2] | gastric mucosa damage index ± standard deviation: Total [5] | gastric mucosa damage index ± standard deviation: Bleeding [5] | gastric mucosa damage index ± standard deviation: Edema [5] | gastric mucosa damage index ± standard deviation: Flare [5] | gastric mucosa damage index ± standard deviation: Hyperemia [5] | gastric mucosa damage index ± standard deviation: Erosion [6] | other results
1 | O=C(NC(Cc1cc(=O)[nH]c2ccccc12)C(=O)O)c1ccc(Cl)cc1 (stereo not drawn) [Mucosta, rebamipide] | 6.1 ± 1.2 | 1.4 ± 0.2 | 1.2 ± 0.3 | 0.9 ± 0.3 | 1.2 ± 0.2 | 1.4 ± 0.2 | 8.5 ± 1.5 | 1.5 ± 0.3 | 1.2 ± 0.1 | 2.3 ± 0.3 | 1.3 ± 0.4 | 2.2 ± 0.4 | gastric mucosa damage index: Total [1]: 8.1 ± 0.8; gastric mucosa damage index: Bleeding ([1]; points 0 to 3): 1.5 ± 0.2; gastric mucosa damage index: Edema ([1]; points 0 to 3): 1.3 ± 0.2; gastric mucosa damage index: Erosion ([1]; points 0 to 3): 1.8 ± 0.2; gastric mucosa damage index: Flare ([1]; points 0 to 3): 1.3 ± 0.2; gastric mucosa damage index: Hyperemia ([1]; points 0 to 3): 1.3 ± 0.4; gastric mucosa damage index: Total [3]: 7.4 ± 0.7; gastric mucosa damage index: Bleeding ([3]; points 0 to 3): 1.2 ± 0.2; gastric mucosa damage index: Edema ([3]; points 0 to 3): 2.2 ± 0.2; gastric mucosa damage index: Erosion ([3]; points 0 to 3): 2.4 ± 0.2; gastric mucosa damage index: Flare ([3]; points 0 to 3): 0.8 ± 0.4; gastric mucosa damage index: Hyperemia ([3]; points 0 to 3): 0.8 ± 0.4; gastric mucosa damage index: Total [4]: 9.8 ± 1.2; gastric mucosa damage index: Bleeding ([4]; points 0 to 3): 1.4 ± 0.5; gastric mucosa damage index: Edema ([4]; points 0 to 3): 1.2 ± 0.2; gastric mucosa damage index: Erosion ([4]; points 0 to 3): 2.4 ± 0.4; gastric mucosa damage index: Flare ([4]; points 0 to 3): 2.6 ± 0.2; gastric mucosa damage index: Hyperemia ([4]; points 0 to 3): 2.2 ± 0.4
2 | CC1OC(OC2C(O)C(C(=O)O)OC(OC3CCC4(C)C(CCC5(C)C4CC=C4C6CC(C)(C)CCC6(C(=O)OC6OC(C)C(O)C(O)C6OC6OC(C)C(OC7OCC(O)C(O)C7O)C(OC7OC(CO)C(O)C(OC8OCC(O)C(O)C8O)C7O)C6O)CCC45C)C3(C)C=O)C2OC2OC(CO)C(O)C(O)C2O)C(O)C(O)C1O [Momordica saponin I, 3-O-β-D-galactopyranosyl(1->2)-[α-L-rhamnopyranosyl(1->3)]-β-D-glucuronopyranosido-28-O-β-D-xylopyranosyl(1->3)-β-D-glucopyranosyl(1->3)-[β-D-xylopyranosyl(1->4)]-α-L-rhamnopyranosyl(1->2)-β-D-fucopyranosylgypsogenin] | 4.4 ± 1.1 | 0.9 ± 0.2 | 1 ± 0.3 | 0.5 ± 0.1 | 1.1 ± 0.2 | 0.9 ± 0.3 | 5.2 ± 1.2 | 0.7 ± 0.2 | 1 ± 0.2 | 1.3 ± 0.2 | 0.9 ± 0.3 | 1.3 ± 0.3 | Acidity in the stomach of rats (pH ± standard deviation) ([7]; 5 mg/kg oral): 3.3 ± 0.1 pH; Acidity in the stomach of rats (pH ± standard deviation) ([7]; 15 mg/kg oral): 4.3 ± 0.8 pH; Acidity in the stomach of rats (pH ± standard deviation) ([7]; 45 mg/kg oral): 5.2 ± 0.6 pH; clinical manifestation or death (Sprague-Dawley rats; once at a dosage of 400 mg/kg): no noticeable clinical manifestation or death; toxicity in body weight change, hematological and serum biochemical analysis and autopsy (Sprague-Dawley rats; once at a dosage of 400 mg/kg): no toxicity was found; minimum oral administration lethal dose (LD50) (Sprague-Dawley rats; single administration): ≥ 400 mg/kg
